# Measured values reported in patent publication US9097667B2, “Fluorescent compounds” (BIOTIUM, INC., priority 2007, dated 2015).
# Test: Absorption and emission spectra of the dyes (λabs/λem in H2O)
# Format: physicochemical
# Details: Table 5, coumarin-based fluorescent groups
# Text: For compounds of Formula II, it is well known to a person of skill in the art to select the bridging unit Y, in combination with a specific embodiment of a moiety of Formula F, in combination with a specific embodiment of moiety Y, and in combination with specific substituents such that the maximal fluorescence excitation wavelength of the compound ranges from about 350 to about 1200 nm. Standard analysis well known in the art is used to obtain the absorption and emission spectra of the dyes in order to ascertain the absorption maximal wavelength and the maximal fluorescence emission wavelength. Any combinations of the above described groups may be used to form a compound of the invention with a maximal fluorescence excitation wavelength of about 550 nm, about 560 nm, about 570 nm, about 580 nm, about 590 nm, about 600 nm, about 610 nm, about 620 nm, about 615 nm, about 620 nm, about 625 nm, about 630 nm, about 635 nm, about 640 nm, about 650 nm, about 655 nm, about 660 nm, about 665 nm, about 670 nm, about 675 nm, about 680 nm, about 685 nm, about 690 nm, about 695 nm, about 700 nm, about 705 nm, about 710 nm, about 715 nm, about 720 nm, about 725 nm, about 730 nm, about 735 nm, about 740 nm, about 745 nm, about 750 nm, about 755 nm, about 760 nm, about 765 nm, about 770 nm, about 775 nm, about 780 nm, about 790 nm, about 800 nm, about 810 nm, about 820 nm, about 830 nm, about 840 nm, about 850 nm, about 860 nm, about 870 nm, about 880 nm, about 890 nm, about 900 nm, about 910 nm, about 920 nm, about 930 nm, about 940 nm, about 950 nm, about 960 nm, about 970 nm, about 980 nm, about 990 nm, about 1000 nm, about 1020 nm, about 1040 nm, about 1060 nm, about 1080 nm, about 1100 nm, about 1120 nm, about 1140 nm, about 1160 nm, about 1180 nm, or about 1200 nm. The moieties described above may be used in any combination. The maximal fluorescence excitation wavelength of the dye is typically the wavelength at which the dye has a maximal absorption or maximal optical density, which excites the dye to fluoresce. In some embodiments, the compound of Formula II has an absorption maximal wavelength at >670 nm. In one embodiment, the absorption maximal wavelength is at >700 nm. According to another embodiment, the absorption maximal wavelength is at >800 nm.
λabs [nm],λcm [nm],SMILES
346,442,COCCOCCOCCOCCOCCOCCOCCOCCOCCOCCOCCOCCN(CCCCCC(=O)ON1C(=O)CCC1=O)C(=O)Cc1c(C)c2cc(S(=O)(=O)O)c(N)cc2oc1=O [Compound No. 51]
416,465,COCCOCCOCCOCCOCCOCCOCCOCCOCCOCCOCCOCCN(CCCCCC(=O)ON1C(=O)CCC1=O)C(=O)c1cc2cc(F)c(O)c(F)c2oc1=O [Compound No. 52]
430,545,COCCOCCOCCOCCOCCOCCOCCOCCOCCOCCOCCOCCOCCOCCOCCOCCOCCOCCOCCOCCOCCOCCOCCOCCN(CCCCCC(=O)ON1C(=O)CCC1=O)C(=O)CCCCCN1c2cc3oc(=O)cc(C(F)(F)F)c3cc2C(CS(=O)(=O)O)=CC1(C)C [compound 53]
353,442,C=C(Cc1c(C)c2ccc(N)cc2oc1=O)N(CCCCCC(=O)ON1C(=O)CCC1=O)CCOCCOCCOCCOCCOCCOCCOCCOCCOCCOCCOCCOC [compound 50]

# Test: Total fluorescence vs. degree of labeling (DOL) of protein dye-conjugates
# Format: physicochemical
# Details: goat anti-mouse IgG conjugates, excited at 350 nm, compared to AMCA; FIG. 7
# Method: Fluorescent conjugates of goat anti-mouse IgG (GAM), goat anti-rabbit IgG (GAR), and streptavidin were prepared from the respective proteins and a reactive dye, following published procedures (U.S. Pat. No. 6,974,873; Haugland et al., Meth. Mol. Biol. 45, 205 (1995); Haugland et al., Meth. Mol. Biol. 45, 223 (1995); Haugland et al., Meth. Mol. Biol. 45, 235 (1995); Haugland et al., Current Protocols in Cell Biology, 16.5.1-16.5.22 (2000)). Briefly, an antibody or streptavidin at 1 mg/mL in […] pH 8.5 sodium bicarbonate buffer was mixed with one of the reactive dye at various ratio of dye molecules/protein molecule. After incubating for about an hour at room temperature, the reaction mixture was separated by gel filtration using Sephadex G-25 equilibrated with PBS (pH 7.4). The various dye molecules/protein ratios used in the labeling reactions produced protein conjugates with different degree of dye labeling (DOL) as listed in Table 7 below for each dye/protein pair.
# The fluorescence of the conjugates was measured using a JACSO fluorescence spectrophotometer and was then plotted against the DOL to give FIGS. 4-7.
# A set of goat anti-mouse IgG conjugates were prepared by labeling a portion of goat anti-mouse IgG with one of three near IR dyes. […]
row,SMILES,total fluorescence vs. degree of labeling (DOL)
1,COCCOCCOCCOCCOCCOCCOCCOCCOCCOCCOCCN(CCCCCC(=O)ON1C(=O)CCC1=O)C(=O)Cc1c(C)c2ccc(N)cc2oc1=O [Compound No. 92],higher fluorescence quantum yield over a wide of degree of labeling and has less fluorescence quenching when the antibody is at higher degrees of labeling
